# US20090185973A1, “METHODS, COMPOSITIONS, UNIT DOSAGE FORMS, AND KITS FOR PHARMACOLOGIC STRESS TESTING WITH REDUCED SIDE EFFECTS” (ADENOBIO N.V., priority 2008, published 2009)
# Several values for one entry are separate records, joined by “and”; a condition that tells them apart may be missing. Equal values may be shown once. Read-outs that look alike come from different tables or passages of the source.
# Key:
# A2a receptor = A2a receptor (Homo sapiens, UniProt P29274); conditions: in vivo; cited from earlier work
# [1] = system: patients with normal coronary reserve; assay: Priming dose effect: time to peak and return to baseline, concurrent administration (Example 4); type: in vivo, human
# From the text: As a test, a low priming dose of dipyridamole was combined with the concurrent administration of the two drugs to determine whether the time to peak and the occurrence of near maximal hyperaemia could be accelerated, especially when infusion time is reduced by, for example, one minute.
# [2] = cited from earlier work
# guinea-pig = conditions: pretreatment dipyridamole 0.025 mg (n = 5); after 14C-adenosine IV injection; mean; cited from earlier work
# patients = type: in vivo, human; conditions: for PV Max, individual patients / MV Max, individual patients / MV Min, individual patients / PV Min, individual patients: listed as DIP
# [3] = system: patients suffering from ischemic heart disease; assay: Transthoracic doppler echocardiography (TTDE) blood flow velocity in LAD, sequential administration (Example 1); type: in vivo, human; conditions: lower doses of dipyridamole (10, 14 and 18 μg/kg)
# Experimental: In the combined administration, each of the two agents was administered at a dosage lower than its clinically preferred dosage when used as a single agent for myocardial perfusion imaging. Effects were measured using noninvasive transthoracic doppler echocardiography (TTDE).
# Primary efficacy end-points were peak and mean diastolic flow velocities (measured as reflecting coronary blood flow values). The secondary end-point was patient tolerance to the procedure. The protocol was designed as follows.
# Forty (40) consecutive patients suffering from ischemic heart disease were enrolled. Each patient served as their own control.
# […] Total doses are between about 4-6% of the lowest single-agent total dose of dipyridamole (i.e., 0.56 mg/kg, infused over a total of 4 minutes).
# This dose is half the standard single-agent dosage rate of 140 μg/kg/min.
# [4] = DIP dose 28 μg/kg, ADE 140 μg/kg/min
# [5] = DIP dose 35 μg/kg, ADE 140 μg/kg/min
# [6] = DIP dose 40 μg/kg, ADE 140 μg/kg/min
# Chain of A2a receptor (P29274 whole entry): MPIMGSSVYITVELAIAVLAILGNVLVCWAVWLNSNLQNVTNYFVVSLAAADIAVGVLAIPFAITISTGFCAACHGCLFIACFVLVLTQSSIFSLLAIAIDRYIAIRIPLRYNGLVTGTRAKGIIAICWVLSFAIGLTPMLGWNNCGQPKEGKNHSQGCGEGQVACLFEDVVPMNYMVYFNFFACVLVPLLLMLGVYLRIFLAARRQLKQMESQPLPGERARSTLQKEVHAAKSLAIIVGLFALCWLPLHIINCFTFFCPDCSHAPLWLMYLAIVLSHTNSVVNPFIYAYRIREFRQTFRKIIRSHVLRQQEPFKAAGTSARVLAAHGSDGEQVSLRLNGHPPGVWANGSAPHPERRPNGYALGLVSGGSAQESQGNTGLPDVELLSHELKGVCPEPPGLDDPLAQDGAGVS
smiles,measurement,setting,value
Nc1nc(N/N=C/C2CCCCC2)nc2c1ncn2[C@@H]1O[C@H](CO)[C@@H](O)[C@H]1O [binodenoson],Duration of action,A2a receptor,10 ± 6 min
OCCN(CCO)c1nc(N2CCCCC2)c2nc(N(CCO)CCO)nc(N3CCCCC3)c2n1 [dipyridamole],Effect of priming dose on time to peak,"[1]; dipyridamole priming dose 0.05 mg, 3 patients",did not modify
same,Effect of priming dose on time to peak,[1]; dipyridamole priming dose 0.1 mg,did modify
same,Effect of priming dose on time to peak,"[1]; dipyridamole priming dose 0.3 mg, 3 patients",did not perform better than 0.1 mg
same,Solubility in saline,[2]; saline,poorly soluble
same,Stability in the long term,[2]; solvents at pH>4,unstable
same,"14C distribution, Heart",guinea-pig,2.1 ± 1.01 percentage of ^14C administered
same,"14C distribution, Lungs",guinea-pig,71.4 ± 4.9 (p < 0.05) percentage of ^14C administered
same,"PV Max, individual patient","patients; DIP dose 28 μg/kg bolus alone, ADE 140 μg/kg/min 3 min",26 cm/sec
same,"MV Max, individual patient",patients; [4],21 cm/s
same,"MV Min, individual patient",patients; [4],19 cm/s
same,"PV Min, individual patient",patients; [4],23 cm/sec
same,"PV Max, individual patients","patients; DIP dose 35 μg/kg bolus alone, ADE 140 μg/kg/min 3 min",23 cm/sec and 40 cm/sec
same,"MV Max, individual patients",patients; [5],20 cm/s and 28 cm/s
same,"MV Min, individual patients",patients; [5],18 cm/s and 22 cm/s
same,"PV Min, individual patients",patients; [5],21 cm/sec and 30 cm/sec
same,"PV Max, individual patients","patients; DIP dose 40 μg/kg bolus alone, ADE 140 μg/kg/min 3 min",35 cm/sec and 40 cm/sec
same,"MV Max, individual patients",patients; [6],25 cm/s and 29 cm/s
same,"MV Min, individual patients",patients; [6],23 cm/s and 24 cm/s
same,"PV Min, individual patients",patients; [6],33 cm/sec and 34 cm/sec
same,Effect on peak and mean diastolic velocities,"patients; dipyridamole alone, bolus 28, 35 or 40 μg/kg",did not modify
same,Symptoms recorded during a follow-up of 10 minutes,patients; in vivo,No symptoms
same,Effect in preliminary dose ranging studies,[3],no effect
